Source: patent publication US20240382483A1, “HETEROCYCLIC EGFR INHIBITORS FOR USE IN THE TREATMENT OF CANCER” (Blueprint Medicines Corporation, priority 2021, published 2024)

Legend:
[1] = biological target: T1, intracellular phosphorylation of EGFR in NCI-H1975 cell line that harbors the EGFR L858R T790M mutations (Homo sapiens, UniProt P00533, L858R/T790M); assay: NCI-H1975 pEGFR AlphaLISA assay; assay type: cell-based; conditions: NCI-H1975 cells (EGFR L858R T790M), p-EGFR (Tyr1068), 4-5 hours incubation; read-out: Ext pEGFR H1975 GMean IC50 (nM) Protocol: @Pharmaron AlphaLISA (Num)
T1 construct: NCI-H1975 cell line that harbors the EGFR L858R T790M mutations (ATCC, CRL-5908); host or cells: NCI-H1975
T1 sequence (P00533 25-1210 T790M/L858R): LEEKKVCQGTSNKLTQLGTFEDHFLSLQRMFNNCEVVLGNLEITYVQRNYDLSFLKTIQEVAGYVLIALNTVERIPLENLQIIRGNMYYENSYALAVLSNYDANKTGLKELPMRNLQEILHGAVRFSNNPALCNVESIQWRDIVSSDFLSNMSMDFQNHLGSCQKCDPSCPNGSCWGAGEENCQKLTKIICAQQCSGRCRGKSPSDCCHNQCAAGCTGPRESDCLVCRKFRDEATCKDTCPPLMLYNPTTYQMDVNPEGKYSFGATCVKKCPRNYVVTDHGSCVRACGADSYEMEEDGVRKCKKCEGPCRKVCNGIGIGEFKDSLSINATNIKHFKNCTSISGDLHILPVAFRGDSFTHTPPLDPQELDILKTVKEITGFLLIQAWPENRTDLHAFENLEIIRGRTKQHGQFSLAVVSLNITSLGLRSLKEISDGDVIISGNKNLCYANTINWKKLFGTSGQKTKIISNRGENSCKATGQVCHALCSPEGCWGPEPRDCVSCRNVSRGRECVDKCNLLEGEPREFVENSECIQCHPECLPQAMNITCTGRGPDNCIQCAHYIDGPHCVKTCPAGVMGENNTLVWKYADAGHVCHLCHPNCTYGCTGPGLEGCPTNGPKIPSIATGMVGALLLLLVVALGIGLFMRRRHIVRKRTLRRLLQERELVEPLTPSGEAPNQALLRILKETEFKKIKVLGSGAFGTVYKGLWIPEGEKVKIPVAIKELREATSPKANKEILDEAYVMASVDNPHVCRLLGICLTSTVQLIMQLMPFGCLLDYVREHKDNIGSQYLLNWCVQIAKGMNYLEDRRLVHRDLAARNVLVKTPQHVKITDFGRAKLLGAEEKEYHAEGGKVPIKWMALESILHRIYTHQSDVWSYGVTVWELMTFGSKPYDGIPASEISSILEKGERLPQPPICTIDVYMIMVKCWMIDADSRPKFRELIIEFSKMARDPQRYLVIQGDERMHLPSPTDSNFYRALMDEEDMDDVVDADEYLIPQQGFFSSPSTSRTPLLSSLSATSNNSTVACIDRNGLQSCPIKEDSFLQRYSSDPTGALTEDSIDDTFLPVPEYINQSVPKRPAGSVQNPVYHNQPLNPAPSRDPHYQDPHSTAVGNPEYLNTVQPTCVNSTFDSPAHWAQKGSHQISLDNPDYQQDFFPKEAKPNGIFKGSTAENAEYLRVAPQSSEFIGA
Description: On the next day, the test compounds and DMSO control were added into H1975 cell plate followed by incubation at 37C/5% CO2 for 4-5 hours. […] Then 5 μL of a donor bead mix was added to each well followed by overnight incubation at room temperature in dark. On the next day, the plate was read at a compatible plate reader to obtain pEGFR signal. Percent of pEGFR inhibition was plotted against log concentration of compounds to generate IC50 values.

EGFR (L858R T790M C797S) = biological target: T2, EGFR (L858R T790M C797S) (Homo sapiens, UniProt P00533, C797S/L858R/T790M); assay: Biochemical EGFR inhibition assay (Caliper mobility shift), EGFR LRTMCS; conditions: LRTMCS (PH) IC50 (nM) @ 1 mM ATP (Num), EGFR LRTMCS mutant
T2 construct: purchased SignalChem E10-122VG
T2 sequence (P00533 25-1210 T790M/C797S/L858R): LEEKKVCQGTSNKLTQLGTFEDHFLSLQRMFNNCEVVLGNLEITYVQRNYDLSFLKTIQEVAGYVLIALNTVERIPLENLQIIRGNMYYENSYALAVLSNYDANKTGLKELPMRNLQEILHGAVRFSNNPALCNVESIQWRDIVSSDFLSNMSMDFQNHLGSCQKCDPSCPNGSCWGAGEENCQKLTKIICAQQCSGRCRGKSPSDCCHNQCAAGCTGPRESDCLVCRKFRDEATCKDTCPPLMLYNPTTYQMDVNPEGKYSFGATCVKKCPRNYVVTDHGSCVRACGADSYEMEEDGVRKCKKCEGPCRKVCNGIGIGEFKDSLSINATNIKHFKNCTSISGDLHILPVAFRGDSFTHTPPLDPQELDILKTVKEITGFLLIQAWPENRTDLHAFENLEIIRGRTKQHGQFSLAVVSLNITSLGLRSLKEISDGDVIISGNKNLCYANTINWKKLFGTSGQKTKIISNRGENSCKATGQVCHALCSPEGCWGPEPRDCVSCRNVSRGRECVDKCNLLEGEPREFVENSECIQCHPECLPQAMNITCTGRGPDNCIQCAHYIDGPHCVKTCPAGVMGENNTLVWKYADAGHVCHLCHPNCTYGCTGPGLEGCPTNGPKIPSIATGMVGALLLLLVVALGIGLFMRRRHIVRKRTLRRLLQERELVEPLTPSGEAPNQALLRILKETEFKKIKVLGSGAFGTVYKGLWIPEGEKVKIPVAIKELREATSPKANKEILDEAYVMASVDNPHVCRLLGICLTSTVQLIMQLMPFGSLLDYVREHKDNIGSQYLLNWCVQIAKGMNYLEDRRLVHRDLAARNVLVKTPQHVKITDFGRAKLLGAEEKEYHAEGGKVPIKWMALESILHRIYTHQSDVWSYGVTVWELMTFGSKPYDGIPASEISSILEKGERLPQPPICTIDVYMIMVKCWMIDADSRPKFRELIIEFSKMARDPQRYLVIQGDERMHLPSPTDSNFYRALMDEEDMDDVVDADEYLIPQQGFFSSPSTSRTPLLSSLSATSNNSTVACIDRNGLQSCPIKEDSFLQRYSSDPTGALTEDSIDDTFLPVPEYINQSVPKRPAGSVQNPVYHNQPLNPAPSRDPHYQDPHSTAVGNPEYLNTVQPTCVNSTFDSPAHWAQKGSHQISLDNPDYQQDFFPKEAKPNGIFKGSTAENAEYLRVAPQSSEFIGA
Method in brief: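 Each enzyme was allowed to phosphorylate 10–20% of its peptide at 25° C. before EDTA (35 mM) quench. Separated substrate and product peaks were measured by mobility shift, giving apparent IC50 values.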

Row | IC50 [1] [nM] | IC50 (EGFR (L858R T790M C797S)) [nM] | SMILES
1 | > 50 | 30 to 100 | CO[C@@H]1CCN(c2nccc(Nc3cc4c(C(C)C)ncc(N5CC(C(=O)N(C)C)C5)c4cn3)n2)C[C@@H]1O (single isomer, unassigned) [Example 121, 1-(7-((2-((3S,4R)-3-hydroxy-4-methoxypiperidin-1-yl)pyrimidin-4-yl)amino)-1-isopropyl-2,6-naphthyridin-4-yl)-N,N-dimethylazetidine-3-carboxamide or 1-(7-((2-((3R,4S)-3-hydroxy-4-methoxypiperidin-1-yl)pyrimidin-4-yl)amino)-1-isopropyl-2,6-naphthyridin-4-yl)-N,N-dimethylazetidine-3-carboxamide]
2 | 30 to 50 | < 15 | CNC(=O)C1CN(c2ncc(C(C)C)c3cc(Nc4ccnc(N5CC[C@@H](O)[C@@](C)(F)C5)n4)ncc23)C1 [Example 80, 1-(6-((2-((3S,4R)-3-fluoro-4-hydroxy-3-methylpiperidin-1-yl)pyrimidin-4-yl)amino)-4-isopropyl-2,7-naphthyridin-1-yl)-N-methylazetidine-3-carboxamide]
3 | < 10 | < 15 | CC(C)c1cnc(N2C[C@@H](C(=O)N(C)C)[C@@H]2C)c2cnc(Nc3ccnc(N4CC[C@@H](O)[C@@](C)(F)C4)n3)cc12 (single isomer, unassigned) [Example 155, (2S,3R)-1-(6-((2-((3S,4R)-3-fluoro-4-hydroxy-3-methylpiperidin-1-yl)pyrimidin-4-yl)amino)-4-isopropyl-2,7-naphthyridin-1-yl)-N,N,2-trimethylazetidine-3-carboxamide or (2R,3S)-1-(6-((2-((3S,4R)-3-fluoro-4-hydroxy-3-methylpiperidin-1-yl)pyrimidin-4-yl)amino)-4-isopropyl-2,7-naphthyridin-1-yl)-N,N,2-trimethylazetidine-3-carboxamide]
4 | 20 to 30 | < 15 | CC(C)c1cnc(N2CCC23CN(C(C)C)C3)c2cnc(Nc3ccnc(N4CC[C@@H](O)[C@@](C)(F)C4)n3)cc12 [Example 193, (3S,4R)-3-fluoro-1-(4-((5-isopropyl-8-(6-isopropyl-1,6-diazaspiro[3.3]heptan-1-yl)-2,7-naphthyridin-3-yl)amino)pyrimidin-2-yl)-3-methylpiperidin-4-ol]
5 | 10 to 20 | < 15 | CC(C)c1cnc(N2CC(C(F)F)C2)c2cnc(Nc3ccnc(N4CC[C@@H](O)[C@@](C)(F)C4)n3)cc12 [Example 55, (3S,4R)-1-(4-((8-(3-(difluoromethyl)azetidin-1-yl)-5-isopropyl-2,7-naphthyridin-3-yl)amino)pyrimidin-2-yl)-3-fluoro-3-methylpiperidin-4-ol]
6 | 20 to 30 | 15 to 20 | CC(C)c1cnc(N2C[C@](C)(O)[C@H]2C)c2cnc(Nc3ccnc(N4CC[C@@H](O)[C@@](C)(F)C4)n3)cc12 [Example 78, (3S,4R)-3-fluoro-1-(4-((8-((2R,3S)-3-hydroxy-2,3-dimethylazetidin-1-yl)-5-isopropyl-2,7-naphthyridin-3-yl)amino)pyrimidin-2-yl)-3-methylpiperidin-4-ol]
7 | 30 to 50 | 20 to 30 | CC(C)c1cnc(N2CC3(CN(C)C(=O)O3)C2)c2cnc(Nc3ccnc(N4CC[C@@H](O)[C@@](C)(F)C4)n3)cc12 [Example 71, 2-(6-((2-((3S,4R)-3-fluoro-4-hydroxy-3-methylpiperidin-1-yl)pyrimidin-4-yl)amino)-4-isopropyl-2,7-naphthyridin-1-yl)-7-methyl-5-oxa-2,7-diazaspiro[3.4]octan-6-one]
8 | 20 to 30 | < 15 | CC(C)c1nnc(N2CC[C@@H]2C)c2cnc(Nc3ccnc(N4CC[C@@H](O)[C@@](C)(F)C4)n3)cc12 (single isomer, unassigned) [Example 206, (3S,4R)-3-fluoro-1-(4-((1-isopropyl-4-((S)-2-methylazetidin-1-yl)pyrido[3,4-d]pyridazin-7-yl)amino)pyrimidin-2-yl)-3-methylpiperidin-4-ol or (3S,4R)-3-fluoro-1-(4-((1-isopropyl-4-((S)-2-methylazetidin-1-yl)pyrido[3,4-d]pyridazin-7-yl)amino)pyrimidin-2-yl)-3-methylpiperidin-4-ol]
9 | > 50 | 15 to 20 | CC(C)c1cnc(N2C[C@H](O)[C@H]2C)c2cnc(Nc3ccnc(N4CC[C@@](C)(O)[C@@H](F)C4)n3)cc12 (single isomer, unassigned) [Example 172, (3S,4R)-3-fluoro-1-(4-((8-((2R,3S)-3-hydroxy-2-methylazetidin-1-yl)-5-isopropyl-2,7-naphthyridin-3-yl)amino)pyrimidin-2-yl)-4-methylpiperidin-4-ol or (3R,4S)-3-fluoro-1-(4-((8-((2R,3S)-3-hydroxy-2-methylazetidin-1-yl)-5-isopropyl-2,7-naphthyridin-3-yl)amino)pyrimidin-2-yl)-4-methylpiperidin-4-ol]
10 | > 50 | 20 to 30 | CC(C)c1cnc(N2C[C@H](O)[C@H]2C)c2cnc(Nc3ccnc(N4C[C@H](F)[C@H](O)[C@@](C)(F)C4)n3)cc12 (single isomer, unassigned) [Example 135, (3S,4S,5S)-3,5-difluoro-1-(4-((8-((2R,3S)-3-hydroxy-2-methylazetidin-1-yl)-5-isopropyl-2,7-naphthyridin-3-yl)amino)pyrimidin-2-yl)-3-methylpiperidin-4-ol or (3R,4R,5R)-3,5-difluoro-1-(4-((8-((2R,3S)-3-hydroxy-2-methylazetidin-1-yl)-5-isopropyl-2,7-naphthyridin-3-yl)amino)pyrimidin-2-yl)-3-methylpiperidin-4-ol]
11 | 10 to 20 | < 15 | CC(C)c1cnc(N2C[C@H](O)[C@H]2C)c2cnc(Nc3ccnc(N4CC[C@@H](O)[C@@H](F)C4)n3)cc12 [Example 154, (3S,4R)-3-fluoro-1-(4-((8-((2R,3S)-3-hydroxy-2-methylazetidin-1-yl)-5-isopropyl-2,7-naphthyridin-3-yl)amino)pyrimidin-2-yl)piperidin-4-ol]
12 | < 10 | < 15 | CC(C)c1ccc(N2CC(n3ccnn3)C2)c2cnc(Nc3ccnc(N4CC[C@@H](O)[C@@](C)(F)C4)n3)cc12 [Example 38, (3S,4R)-1-(4-((8-(3-(1H-1,2,3-triazol-1-yl)azetidin-1-yl)-5-isopropylisoquinolin-3-yl)amino)pyrimidin-2-yl)-3-fluoro-3-methylpiperidin-4-ol]
13 | 30 to 50 | < 15 | CC(C)c1cnc(N2CC(O)C2)c2cnc(Nc3ccnc(N4CC[C@@]5(CCO5)C(F)(F)C4)n3)cc12 (single isomer, unassigned) [Example 146, (R)-1-(6-((2-(5,5-difluoro-1-oxa-7-azaspiro[3.5]nonan-7-yl)pyrimidin-4-yl)amino)-4-isopropyl-2,7-naphthyridin-1-yl)azetidin-3-ol or (S)-1-(6-((2-(5,5-difluoro-1-oxa-7-azaspiro[3.5]nonan-7-yl)pyrimidin-4-yl)amino)-4-isopropyl-2,7-naphthyridin-1-yl)azetidin-3-ol]
14 | < 10 | < 15 | CC(C)c1cnc(N2CC[C@H]2C)c2cnc(Nc3ccnc(N4CC[C@H](OCCO)[C@H](F)C4)n3)cc12 [Example 141, 2-(((3R,4S)-3-fluoro-1-(4-((5-isopropyl-8-((R)-2-methylazetidin-1-yl)-2,7-naphthyridin-3-yl)amino)pyrimidin-2-yl)piperidin-4-yl)oxy)ethan-1-ol]
15 | 30 to 50 | < 15 | CC(C)c1cnc(N2C[C@H](O)[C@H]2C)c2cnc(Nc3ccnc(N4CC[C@@H](O)C5(CC5)C4)n3)cc12 (single isomer, unassigned) [Example 169, (R)-5-(4-((8-((2R,3S)-3-hydroxy-2-methylazetidin-1-yl)-5-isopropyl-2,7-naphthyridin-3-yl)amino)pyrimidin-2-yl)-5-azaspiro[2.5]octan-8-ol or (S)-5-(4-((8-((2R,3S)-3-hydroxy-2-methylazetidin-1-yl)-5-isopropyl-2,7-naphthyridin-3-yl)amino)pyrimidin-2-yl)-5-azaspiro[2.5]octan-8-ol]
16 | 20 to 30 | < 15 | CC(C)c1cnc(N2CCC2)c2cnc(Nc3ccnc(N4CC[C@@H](O)[C@@](C)(F)C4)n3)cc12 [Example 46, (3S,4R)-1-(4-((8-(azetidin-1-yl)-5-isopropyl-2,7-naphthyridin-3-yl)amino)pyrimidin-2-yl)-3-fluoro-3-methylpiperidin-4-ol]
17 | > 50 | < 15 | CC(C)c1cnc(-c2cn(C)nn2)c2cnc(Nc3ccnc(N4CCC5(CCO5)CC4)n3)cc12 [Example 23, N-(2-(1-oxa-7-azaspiro[3.5]nonan-7-yl)pyrimidin-4-yl)-5-isopropyl-8-(1-methyl-1H-1,2,3-triazol-4-yl)-2,7-naphthyridin-3-amine]
18 | 10 to 20 | < 15 | CC(C)c1cnc(-c2cn(C)nn2)c2cnc(Nc3ccnc(N4CC[C@@H](O)[C@@](C)(F)C4)n3)cc12 [Example 10, (3S,4R)-3-fluoro-1-(4-((5-isopropyl-8-(1-methyl-1H-1,2,3-triazol-4-yl)-2,7-naphthyridin-3-yl)amino)pyrimidin-2-yl)-3-methylpiperidin-4-ol]
